Where two headings read alike, the source gives them in different places.
What was measured:
[1] = test system: HepG2-A16-CD81EGFP cells; conditions: sheet 2nd round; for IC50: read-out: Tox_IC50, HepG2 cytotoxicity; for Tox_max_inhibition (%): maximal inhibition in dose response
[2] = test system: Plasmodium berghei (Pb-Luc) exoerythrocytic-stage parasites; conditions: for normalized signal at concentration 10 / normalized signal at concentration 0.000508053 / normalized signal at concentration 0.00152416 / normalized signal at concentration 0.00457247 / normalized signal at concentration 0.0137174 / normalized signal at concentration 0.0411523 / normalized signal at concentration 0.123457 / normalized signal at concentration 0.37037 / normalized signal at concentration 1.11111 / normalized signal at concentration 3.33333: fraction of control; for IC50: read-out: PbLuc_IC50, Broad compounds, dose response; for IC50 / PbLuc_max_inhibition (%): sheet 2nd round; for PbLuc_max_inhibition (%): maximal inhibition in dose response
[3] = first series of dose-response columns
[4] = second series of dose-response columns

SMILES	IC50 [1] [µM]	Tox_max_inhibition (%) [1] [%]	normalized signal at concentration 10 [2, 3]	normalized signal at concentration 0.000508053 ([2]; first series)	normalized signal at concentration 0.00152416 ([2]; first series)	normalized signal at concentration 0.00457247 ([2]; first series)	normalized signal at concentration 0.0137174 ([2]; first series)	normalized signal at concentration 0.0411523 ([2]; first series)	normalized signal at concentration 0.123457 ([2]; first series)	normalized signal at concentration 0.37037 ([2]; first series)	normalized signal at concentration 1.11111 ([2]; first series)	normalized signal at concentration 3.33333 ([2]; first series)	IC50 [2] [µM]	normalized signal at concentration 10 [2, 4]	normalized signal at concentration 0.000508053 ([2]; second series)	normalized signal at concentration 0.00152416 ([2]; second series)	normalized signal at concentration 0.00457247 ([2]; second series)	normalized signal at concentration 0.0137174 ([2]; second series)	normalized signal at concentration 0.0411523 ([2]; second series)	normalized signal at concentration 0.123457 ([2]; second series)	further results
C[C@@H]1CN([C@@H](C)CO)C(=O)c2cccc(NC(=O)C3CC3)c2O[C@@H]1CN(C)C(=O)Nc1ccc(C(F)(F)F)cc1 [BRD-K19818397-001-01-8]	> 10	16	1.071	1.034	0.8006	1.0648	1.106	1.032	1.068	0.8949	0.9694	1.103	> 10	1.03	1.064	1.02	1.098	0.9383	0.9903	1.126	normalized signal at concentration 0.37037 ([2]; second series): 1.0101; normalized signal at concentration 1.11111 ([2]; second series): 1.172; normalized signal at concentration 3.33333 ([2]; second series): 1.008; PbLuc_max_inhibition (%) [2]: 20%
O=S(=O)(c1cccs1)N1CCCCN2[C@H](CO)[C@H](c3ccc(/C=C/c4ccccc4)cc3)[C@H]2C1 [BRD-K20449903-001-01-6]	> 10	9	0.52	1.07	1.07	0.84	1.09	0.93	1.01	1.01	1.05	1.18	> 10	0.70	0.94	1.05	0.96	1.06	1.19	1.23	normalized signal at concentration 0.37037 ([2]; second series): 0.91; normalized signal at concentration 1.11111 ([2]; second series): 1.04; normalized signal at concentration 3.33333 ([2]; second series): 1.04; PbLuc_max_inhibition (%) [2]: 48%
Cc1cccc(-c2ccc(C3[C@@H]4CN(C(=O)CN(C)C)C[C@H]3N4)cc2)c1 (stereo partly drawn) [BRD-K25161260-019-01-1]	> 10	5.5	0.87	0.66	0.79	0.92	0.97	0.91	0.95	0.78	0.60	0.90	> 10	0.87	0.94	0.94	1.11	1.12	1.00	1.11	normalized signal at concentration 0.37037 ([2]; second series): 0.98; normalized signal at concentration 1.11111 ([2]; second series): 0.83; normalized signal at concentration 3.33333 ([2]; second series): 0.97; PbLuc_max_inhibition (%) [2]: 40%
